Data taken from ChEMBL document CHEMBL1201862, “PubChem BioAssay data set” (2004).
Active and inactive are the calls of the source.

Tests used:
[1] = biological target: T1, Sentrin-specific protease 8 (Homo sapiens, UniProt Q96LD8); experiment: SENP8 protease inhibitors, SAR follow-up, biochemical, luminescence (AID 504501); format: functional
T1 sequence (Q96LD8 whole entry): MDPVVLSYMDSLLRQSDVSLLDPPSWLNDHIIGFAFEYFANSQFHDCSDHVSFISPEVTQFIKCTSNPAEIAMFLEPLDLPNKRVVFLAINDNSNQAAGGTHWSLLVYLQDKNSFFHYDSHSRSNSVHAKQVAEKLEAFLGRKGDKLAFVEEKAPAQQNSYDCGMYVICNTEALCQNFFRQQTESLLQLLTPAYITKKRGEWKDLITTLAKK

Caspase-3 = biological target: T2, Caspase-3 (Homo sapiens, UniProt P42574); experiment: SAR Analysis of small molecule inhibitors of Sentrin-specific proteases (SENPs) using a Caspase-3 Selectivity assay. [Related pubchem assays (depositor defined):AID2540, AID2599, AID434973, AID489001]; format: functional
T2 sequence (P42574 whole entry): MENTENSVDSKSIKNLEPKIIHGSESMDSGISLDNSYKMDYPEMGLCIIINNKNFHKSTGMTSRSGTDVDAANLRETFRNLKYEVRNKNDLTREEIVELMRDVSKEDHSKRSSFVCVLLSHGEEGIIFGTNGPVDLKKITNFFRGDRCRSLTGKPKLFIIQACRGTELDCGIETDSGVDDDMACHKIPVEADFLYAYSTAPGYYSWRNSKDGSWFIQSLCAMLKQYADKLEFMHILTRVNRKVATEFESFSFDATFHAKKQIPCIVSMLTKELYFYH

[2] = biological target: T3, Sentrin-specific protease 6 (Homo sapiens, UniProt Q9GZR1); experiment: SAR Analysis of small molecule inhibitors of Sentrin-specific protease 6 (SENP6) using a Luminescent assay. [Related pubchem assays (depositor defined):AID2582, AID2599]; format: functional
T3 sequence (Q9GZR1 whole entry): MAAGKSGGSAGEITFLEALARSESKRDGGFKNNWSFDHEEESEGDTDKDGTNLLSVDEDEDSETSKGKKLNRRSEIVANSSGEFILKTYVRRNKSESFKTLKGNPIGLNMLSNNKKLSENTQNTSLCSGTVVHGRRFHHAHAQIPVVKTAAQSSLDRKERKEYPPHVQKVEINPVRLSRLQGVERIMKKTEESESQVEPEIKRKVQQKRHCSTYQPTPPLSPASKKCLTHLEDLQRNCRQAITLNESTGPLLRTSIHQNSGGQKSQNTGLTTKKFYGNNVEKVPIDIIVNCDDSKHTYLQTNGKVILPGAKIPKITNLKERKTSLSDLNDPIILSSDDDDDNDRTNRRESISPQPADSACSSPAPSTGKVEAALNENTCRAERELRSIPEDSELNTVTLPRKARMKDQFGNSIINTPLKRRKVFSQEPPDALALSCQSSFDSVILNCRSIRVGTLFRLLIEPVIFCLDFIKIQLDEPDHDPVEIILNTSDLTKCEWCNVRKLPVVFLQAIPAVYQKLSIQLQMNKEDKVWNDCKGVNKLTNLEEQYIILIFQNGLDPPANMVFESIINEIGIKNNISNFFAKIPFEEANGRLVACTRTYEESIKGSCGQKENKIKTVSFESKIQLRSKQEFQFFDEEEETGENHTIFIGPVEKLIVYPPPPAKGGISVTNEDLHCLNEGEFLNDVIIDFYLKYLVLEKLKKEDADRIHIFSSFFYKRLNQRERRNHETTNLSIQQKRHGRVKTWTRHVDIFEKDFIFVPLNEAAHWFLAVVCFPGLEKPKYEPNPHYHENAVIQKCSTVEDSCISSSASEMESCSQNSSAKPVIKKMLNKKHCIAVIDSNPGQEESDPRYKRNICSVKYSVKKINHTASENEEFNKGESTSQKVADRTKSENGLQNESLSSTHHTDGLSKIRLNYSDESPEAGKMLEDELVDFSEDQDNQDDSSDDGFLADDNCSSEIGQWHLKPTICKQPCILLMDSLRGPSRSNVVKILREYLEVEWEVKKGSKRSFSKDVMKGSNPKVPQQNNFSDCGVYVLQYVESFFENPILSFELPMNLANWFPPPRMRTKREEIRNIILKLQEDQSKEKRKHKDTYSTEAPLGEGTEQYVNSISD

[3] = biological target: T4, Sentrin-specific protease 7 (Homo sapiens, UniProt Q9BQF6); experiment: SENP7 protease inhibitors, SAR follow-up, biochemical, luminescence (AID 504497); format: functional
T4 sequence (Q9BQF6 whole entry): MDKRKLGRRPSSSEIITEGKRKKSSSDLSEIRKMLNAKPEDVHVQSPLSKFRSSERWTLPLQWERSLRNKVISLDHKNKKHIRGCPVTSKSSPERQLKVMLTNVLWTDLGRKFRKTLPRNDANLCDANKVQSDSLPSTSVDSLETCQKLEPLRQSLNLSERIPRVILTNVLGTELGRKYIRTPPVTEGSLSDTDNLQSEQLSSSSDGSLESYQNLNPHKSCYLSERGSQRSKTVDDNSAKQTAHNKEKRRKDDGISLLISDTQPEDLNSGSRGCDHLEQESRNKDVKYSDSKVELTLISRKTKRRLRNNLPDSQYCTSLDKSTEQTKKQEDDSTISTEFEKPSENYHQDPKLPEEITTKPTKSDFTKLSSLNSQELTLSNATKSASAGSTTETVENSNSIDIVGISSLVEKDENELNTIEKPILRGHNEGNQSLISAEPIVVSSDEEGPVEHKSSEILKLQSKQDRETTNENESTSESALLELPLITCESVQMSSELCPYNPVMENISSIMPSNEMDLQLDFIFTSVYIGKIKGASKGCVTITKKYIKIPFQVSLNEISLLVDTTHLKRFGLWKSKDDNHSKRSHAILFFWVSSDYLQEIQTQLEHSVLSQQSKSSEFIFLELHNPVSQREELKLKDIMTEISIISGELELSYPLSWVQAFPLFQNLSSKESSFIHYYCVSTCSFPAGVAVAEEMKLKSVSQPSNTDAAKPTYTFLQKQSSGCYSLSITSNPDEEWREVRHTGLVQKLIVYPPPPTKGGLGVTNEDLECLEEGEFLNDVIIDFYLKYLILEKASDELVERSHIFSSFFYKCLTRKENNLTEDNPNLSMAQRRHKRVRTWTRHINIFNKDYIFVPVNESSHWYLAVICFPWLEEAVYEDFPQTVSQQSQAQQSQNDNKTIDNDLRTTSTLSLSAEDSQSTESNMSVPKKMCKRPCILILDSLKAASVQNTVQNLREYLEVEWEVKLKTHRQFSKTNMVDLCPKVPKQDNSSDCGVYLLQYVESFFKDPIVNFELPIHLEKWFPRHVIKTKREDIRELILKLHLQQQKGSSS

Protein Wnt-3a = Protein Wnt-3a (Mus musculus, UniProt P27467); experiment: Wnt3a-driven reporter signaling inhibition, dose response, selectivity assay for Gli-SUFU antagonist project, Wnt-LIGHT cells, luminescence (AID 651570); format: functional; details: read-out: IC50_Mean;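 further: Wnt-LIGHT reporter cells stimulated with conditioned medium from Wnt3a-producing cells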
Protein Wnt-3a, sequence (P27467 whole entry): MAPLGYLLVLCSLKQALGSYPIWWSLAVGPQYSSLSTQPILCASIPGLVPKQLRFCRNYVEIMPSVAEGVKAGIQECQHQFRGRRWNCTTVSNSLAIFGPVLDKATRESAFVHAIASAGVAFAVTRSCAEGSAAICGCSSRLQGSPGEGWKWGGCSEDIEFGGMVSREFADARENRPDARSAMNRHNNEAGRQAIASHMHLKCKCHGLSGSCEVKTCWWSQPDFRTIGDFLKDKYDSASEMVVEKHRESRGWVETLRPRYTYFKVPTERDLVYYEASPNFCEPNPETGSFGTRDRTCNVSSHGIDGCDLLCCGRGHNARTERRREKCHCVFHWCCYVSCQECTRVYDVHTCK

[4] = biological target: Adenosylmethionine-8-amino-7-oxononanoate aminotransferase (Mycobacterium tuberculosis, UniProt P9WQ81); experiment: Mycobacterium tuberculosis BioA enzyme inhibitor Measured in Biochemical System Using Plate Reader - 2163-02_Inhibitor_Dose_CherryPick_Activity.; format: functional, Mycobacterium tuberculosis UT205
Adenosylmethionine-8-amino-7-oxononanoate aminotransferase, sequence (P9WQ81 whole entry): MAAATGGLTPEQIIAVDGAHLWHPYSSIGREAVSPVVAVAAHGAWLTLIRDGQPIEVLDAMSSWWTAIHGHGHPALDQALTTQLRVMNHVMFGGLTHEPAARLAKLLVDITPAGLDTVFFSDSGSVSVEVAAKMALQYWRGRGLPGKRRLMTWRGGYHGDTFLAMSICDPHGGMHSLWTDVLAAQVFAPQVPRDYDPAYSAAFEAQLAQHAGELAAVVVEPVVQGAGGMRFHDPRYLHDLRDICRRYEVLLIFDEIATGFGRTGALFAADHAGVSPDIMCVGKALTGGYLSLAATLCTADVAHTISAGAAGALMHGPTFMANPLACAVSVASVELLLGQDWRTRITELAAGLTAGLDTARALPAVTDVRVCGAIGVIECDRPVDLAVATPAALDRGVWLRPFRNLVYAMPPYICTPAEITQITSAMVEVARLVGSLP

[5] = biological target: Glycogen synthase kinase-3 beta (Homo sapiens, UniProt P49841); format: functional;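 further: value comes from a broad kinome profiling panel, with GSK3B as the panel member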
Glycogen synthase kinase-3 beta, sequence (P49841 whole entry): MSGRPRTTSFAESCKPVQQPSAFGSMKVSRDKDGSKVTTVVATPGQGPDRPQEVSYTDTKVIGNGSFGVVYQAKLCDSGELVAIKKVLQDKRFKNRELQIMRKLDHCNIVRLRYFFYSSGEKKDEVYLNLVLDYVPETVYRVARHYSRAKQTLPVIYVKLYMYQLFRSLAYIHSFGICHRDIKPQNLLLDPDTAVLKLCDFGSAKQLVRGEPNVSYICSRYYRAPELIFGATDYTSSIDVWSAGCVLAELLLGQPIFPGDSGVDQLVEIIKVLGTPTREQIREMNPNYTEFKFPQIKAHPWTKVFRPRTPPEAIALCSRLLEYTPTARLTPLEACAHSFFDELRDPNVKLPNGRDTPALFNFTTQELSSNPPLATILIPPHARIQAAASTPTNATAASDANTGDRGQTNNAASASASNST

[6] = biological target: Homeodomain-interacting protein kinase 2 (Homo sapiens, UniProt Q9H2X6); format: functional;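 further: measured within a kinome-wide kinase profiling panel, HIPK2 being one panel member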
Homeodomain-interacting protein kinase 2, sequence (Q9H2X6 whole entry): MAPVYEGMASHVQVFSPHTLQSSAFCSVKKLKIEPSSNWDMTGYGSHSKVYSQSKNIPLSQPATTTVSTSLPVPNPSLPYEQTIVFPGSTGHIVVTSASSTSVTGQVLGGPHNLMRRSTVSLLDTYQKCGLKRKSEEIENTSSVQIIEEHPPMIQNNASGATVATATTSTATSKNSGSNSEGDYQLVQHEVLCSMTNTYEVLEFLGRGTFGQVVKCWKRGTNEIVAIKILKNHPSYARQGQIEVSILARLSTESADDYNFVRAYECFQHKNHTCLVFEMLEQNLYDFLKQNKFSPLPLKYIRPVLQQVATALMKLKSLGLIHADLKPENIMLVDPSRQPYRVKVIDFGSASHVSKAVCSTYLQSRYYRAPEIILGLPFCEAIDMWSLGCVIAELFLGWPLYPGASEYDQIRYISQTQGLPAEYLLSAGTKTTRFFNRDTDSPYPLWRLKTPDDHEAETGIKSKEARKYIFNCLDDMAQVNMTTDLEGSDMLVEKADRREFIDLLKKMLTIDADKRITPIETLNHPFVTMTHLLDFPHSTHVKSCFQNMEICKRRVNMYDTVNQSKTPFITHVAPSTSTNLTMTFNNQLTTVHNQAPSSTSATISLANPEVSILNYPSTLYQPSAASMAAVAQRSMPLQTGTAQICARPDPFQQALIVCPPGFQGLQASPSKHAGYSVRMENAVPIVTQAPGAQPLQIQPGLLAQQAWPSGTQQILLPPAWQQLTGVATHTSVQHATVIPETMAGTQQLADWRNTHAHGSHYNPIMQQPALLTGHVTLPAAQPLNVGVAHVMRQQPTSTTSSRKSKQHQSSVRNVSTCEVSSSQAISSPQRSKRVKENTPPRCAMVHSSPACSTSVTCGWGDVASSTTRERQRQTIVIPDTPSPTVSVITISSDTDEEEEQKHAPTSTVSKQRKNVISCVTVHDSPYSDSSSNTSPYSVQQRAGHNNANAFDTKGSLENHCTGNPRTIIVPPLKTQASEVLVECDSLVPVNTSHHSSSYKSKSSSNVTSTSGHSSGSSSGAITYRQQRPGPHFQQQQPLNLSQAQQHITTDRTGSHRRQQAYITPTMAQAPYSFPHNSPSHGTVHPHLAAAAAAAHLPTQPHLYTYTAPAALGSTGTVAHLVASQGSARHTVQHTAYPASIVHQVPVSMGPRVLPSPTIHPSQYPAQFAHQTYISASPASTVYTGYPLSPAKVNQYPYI

[7] = biological target: Cell division cycle 7-related protein kinase (Homo sapiens, UniProt O00311); format: functional;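 further: value obtained from a kinome-wide kinase panel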
Cell division cycle 7-related protein kinase, sequence (O00311 whole entry): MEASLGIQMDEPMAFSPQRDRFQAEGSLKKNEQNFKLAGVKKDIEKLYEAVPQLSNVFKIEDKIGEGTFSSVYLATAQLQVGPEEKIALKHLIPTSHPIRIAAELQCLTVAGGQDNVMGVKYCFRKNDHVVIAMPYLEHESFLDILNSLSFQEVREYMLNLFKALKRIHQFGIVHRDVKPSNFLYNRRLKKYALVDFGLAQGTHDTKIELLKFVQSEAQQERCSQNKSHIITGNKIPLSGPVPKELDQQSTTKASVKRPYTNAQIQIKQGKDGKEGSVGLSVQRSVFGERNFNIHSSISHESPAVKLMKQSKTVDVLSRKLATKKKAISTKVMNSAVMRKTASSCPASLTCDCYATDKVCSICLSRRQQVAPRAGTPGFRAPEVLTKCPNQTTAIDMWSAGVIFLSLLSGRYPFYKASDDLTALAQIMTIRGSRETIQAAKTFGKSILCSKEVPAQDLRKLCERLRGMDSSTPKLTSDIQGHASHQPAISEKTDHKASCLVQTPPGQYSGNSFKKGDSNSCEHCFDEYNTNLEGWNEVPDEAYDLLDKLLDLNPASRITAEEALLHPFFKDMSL

[8] = biological target: Dual specificity protein kinase CLK4 (Homo sapiens, UniProt Q9HAZ1); format: functional
Dual specificity protein kinase CLK4, sequence (Q9HAZ1 whole entry): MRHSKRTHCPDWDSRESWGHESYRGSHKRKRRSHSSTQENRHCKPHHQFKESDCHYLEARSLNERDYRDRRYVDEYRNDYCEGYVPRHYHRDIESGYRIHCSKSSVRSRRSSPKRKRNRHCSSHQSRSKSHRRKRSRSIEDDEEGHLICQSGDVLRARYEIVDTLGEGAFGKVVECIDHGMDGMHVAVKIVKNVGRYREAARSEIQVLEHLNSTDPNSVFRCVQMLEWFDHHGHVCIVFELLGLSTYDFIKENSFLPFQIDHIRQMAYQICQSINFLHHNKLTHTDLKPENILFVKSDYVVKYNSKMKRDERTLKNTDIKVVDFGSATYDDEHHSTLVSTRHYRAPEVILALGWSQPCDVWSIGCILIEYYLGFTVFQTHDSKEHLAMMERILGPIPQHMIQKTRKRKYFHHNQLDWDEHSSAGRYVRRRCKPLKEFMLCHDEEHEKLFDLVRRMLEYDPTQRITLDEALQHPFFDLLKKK

[9] = biological target: T5, Interleukin-1 receptor-associated kinase 4 (Homo sapiens, UniProt Q9NWZ3); format: functional
T5 sequence (Q9NWZ3 whole entry): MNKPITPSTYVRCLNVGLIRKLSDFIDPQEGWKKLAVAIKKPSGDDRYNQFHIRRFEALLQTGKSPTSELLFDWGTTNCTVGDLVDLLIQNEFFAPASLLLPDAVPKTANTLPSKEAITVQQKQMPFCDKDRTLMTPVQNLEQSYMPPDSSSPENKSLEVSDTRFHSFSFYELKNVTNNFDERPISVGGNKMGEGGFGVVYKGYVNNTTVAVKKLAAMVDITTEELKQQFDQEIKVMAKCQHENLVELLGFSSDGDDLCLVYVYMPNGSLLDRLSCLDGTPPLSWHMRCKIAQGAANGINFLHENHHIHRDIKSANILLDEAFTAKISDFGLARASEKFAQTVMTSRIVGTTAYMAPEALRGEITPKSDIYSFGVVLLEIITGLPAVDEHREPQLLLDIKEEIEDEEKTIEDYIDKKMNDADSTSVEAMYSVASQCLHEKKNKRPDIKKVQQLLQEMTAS

[10] = biological target: Serine/threonine-protein kinase pim-1 (Homo sapiens, UniProt P11309); format: functional
Serine/threonine-protein kinase pim-1, sequence (P11309 whole entry): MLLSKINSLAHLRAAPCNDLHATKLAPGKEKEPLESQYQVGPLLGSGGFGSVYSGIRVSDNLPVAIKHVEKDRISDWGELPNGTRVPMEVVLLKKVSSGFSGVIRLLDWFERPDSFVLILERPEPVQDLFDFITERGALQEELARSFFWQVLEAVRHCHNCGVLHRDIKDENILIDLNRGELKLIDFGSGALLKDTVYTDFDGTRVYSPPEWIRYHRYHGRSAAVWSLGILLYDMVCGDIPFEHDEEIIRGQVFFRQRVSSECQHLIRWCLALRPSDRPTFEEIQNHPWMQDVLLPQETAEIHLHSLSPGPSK

[11] = biological target: cAMP-dependent protein kinase catalytic subunit alpha (Homo sapiens, UniProt P17612); format: functional
[12] = biological target: T6, Endoribonuclease toxin MazF (Escherichia coli K-12, UniProt P0AE70); experiment: fluorescent RNA oligo signal without MazF, dose response, counter-screen for MazEF activator project, biochemical, fluorescence, single-stranded RNase substrate (AID 588502); format: functional
T6 sequence (P0AE70 whole entry): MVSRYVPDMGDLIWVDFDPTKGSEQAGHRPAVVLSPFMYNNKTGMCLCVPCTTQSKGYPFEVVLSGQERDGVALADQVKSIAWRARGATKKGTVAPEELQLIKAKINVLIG

[13] = biological target: T6, Endoribonuclease toxin MazF; experiment: MazF toxin RNase activators, dose response, biochemical, fluorescence, single-stranded RNA substrate, uHTS hits (AID 588481); format: functional
Cytochrome P450 2D6 = Cytochrome P450 2D6 (Homo sapiens, UniProt P10635);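 further: CYP2D6 member of a cytochrome P450 panel assay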
Cytochrome P450 2D6, sequence (P10635 whole entry): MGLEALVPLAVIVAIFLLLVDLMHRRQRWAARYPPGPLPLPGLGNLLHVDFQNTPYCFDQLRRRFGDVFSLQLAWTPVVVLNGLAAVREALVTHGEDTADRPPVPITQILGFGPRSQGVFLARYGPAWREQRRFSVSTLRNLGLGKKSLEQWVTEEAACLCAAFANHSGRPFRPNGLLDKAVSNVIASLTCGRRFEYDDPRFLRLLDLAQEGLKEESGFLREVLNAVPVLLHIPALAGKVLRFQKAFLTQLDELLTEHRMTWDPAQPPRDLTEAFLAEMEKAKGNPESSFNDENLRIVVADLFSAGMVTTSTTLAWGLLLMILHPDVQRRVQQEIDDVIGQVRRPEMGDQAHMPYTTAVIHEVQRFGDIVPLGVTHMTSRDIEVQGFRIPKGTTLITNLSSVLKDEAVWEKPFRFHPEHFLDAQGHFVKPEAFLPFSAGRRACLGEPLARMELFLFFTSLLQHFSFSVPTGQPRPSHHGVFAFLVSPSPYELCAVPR

Cytochrome P450 1A2 = biological target: T7, Cytochrome P450 1A2 (Homo sapiens, UniProt P05177);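 further: PubChem cytochrome P450 panel assay, CYP1A2 panel member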
T7 sequence (P05177 whole entry): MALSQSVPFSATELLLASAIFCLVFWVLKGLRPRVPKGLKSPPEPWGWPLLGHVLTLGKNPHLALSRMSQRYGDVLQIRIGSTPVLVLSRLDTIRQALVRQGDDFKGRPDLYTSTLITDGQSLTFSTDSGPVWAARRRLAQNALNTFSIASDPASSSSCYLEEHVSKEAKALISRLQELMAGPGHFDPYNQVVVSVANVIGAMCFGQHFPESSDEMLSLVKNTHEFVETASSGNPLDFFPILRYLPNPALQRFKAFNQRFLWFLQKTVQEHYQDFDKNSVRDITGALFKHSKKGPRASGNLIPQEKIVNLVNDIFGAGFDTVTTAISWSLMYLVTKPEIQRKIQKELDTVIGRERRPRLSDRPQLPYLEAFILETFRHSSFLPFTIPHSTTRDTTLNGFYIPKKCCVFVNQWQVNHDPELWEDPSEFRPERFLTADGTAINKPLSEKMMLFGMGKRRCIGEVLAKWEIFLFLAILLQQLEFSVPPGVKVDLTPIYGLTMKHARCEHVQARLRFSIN

What does the source list for O=C(Nc1ccc(-c2nc3cc(Cl)ccc3o2)cc1)c1ccccc1?
IC50 [1]: > 99 µM (inactive); IC50 (Caspase-3): > 99 µM (inactive); IC50 [2]: > 99 µM (inactive); IC50 [3]: > 99 µM (inactive)

CCN(CC)S(=O)(=O)c1ccc(C)c(NC(=S)N2CCN(Cc3ccc4c(c3)OCO4)CC2)c1 was tested. Which IC50 (Protein Wnt-3a) did it give?
The IC50 was 2.35 µM (active).

For C=CCn1c(COc2ccccc2F)nnc1SCCN1C(=O)c2ccccc2C1=O, which AC50 [4] is on record?
Its AC50 is 7.95 µM (active).

For NC(=O)c1ccc(-c2ccnc(N)n2)cc1N1CCCCC1, which Ki [5] is on record?
Its Ki is 1 µM (active).

And the Ki [6]?
The Ki was > 3.16 µM (inactive).

And the Ki [7]?
Its Ki is 7.94 nM (active).

What about the Ki [8] of the same molecule?
The Ki was 3.16 nM (active).

And the Ki [9]?
Its Ki is 5.01 µM (active).

What about the Ki [10] of the same molecule?
Its Ki is > 10 µM (inactive).

And the Ki [11]?
The Ki was > 7.94 µM (inactive).

O=C(Nc1ccc(Oc2ccccc2)cc1)c1ccc2c(c1)OCO2 was tested. Which IC50 [1] did it give?
The IC50 was 2.2 µM (active).

What about the IC50 (Caspase-3) of the same molecule?
The IC50 was 1.99 µM (active).

And the IC50 [2]?
Its IC50 is 1.55 µM (active).

And the IC50 [3]?
The IC50 was 1.06 µM (active).

For Clc1ccc(N/N=C/c2cn(Cc3ccccc3)c3ccccc23)cc1, which IC50 [1] is on record?
The IC50 was > 99 µM (inactive).

What about the IC50 (Caspase-3) of the same molecule?
Its IC50 is > 99 µM (inactive).

What about the IC50 [2] of the same molecule?
Its IC50 is > 99 µM (inactive).

What about the IC50 [3] of the same molecule?
The IC50 was > 99 µM (inactive).

For CCCn1c(SCC(=O)Nc2nc(-c3ccc(OC)cc3)cs2)nc2c1c(=O)n(C)c(=O)n2C, which EC50 [12] is on record?
Its EC50 is > 99 µM (inactive).

What about the EC50 [13] of the same molecule?
The EC50 was > 99 µM (inactive).

What about the IC50 (Protein Wnt-3a) of the same molecule?
The IC50 was 1.32 µM (active).

What does the source list for Cc1nc2nc(SCC(=O)NCc3ccco3)nn2c(C)c1Cc1c(F)cccc1Cl?
AC50 [4]: 1.38 µM (active); AC50 (Cytochrome P450 2D6): 28.2 µM (inconclusive); AC50 (Cytochrome P450 1A2): 20 µM (inconclusive)
